Laboratory results from patent publication US20250276066A1, “METHODS, COMPOSITIONS AND COMPOUNDS FOR TREATING AGE-RELATED DISEASES AND CONDITIONS” (GERO PTE. LTD., priority 2021, published 2025).
Like-named read-outs stand apart in the source and are kept apart here.

Legend:
C. elegans = C. elegans lifespan screening (survival) assay; assay type: in vivo, Caenorhabditis elegans; conditions: for Mean LS ext., %: mean lifespan extension vs control, doses (uM); for Mean LS*: mean lifespan, dose uM: Panobinostat 1, Entinostat 10, Topotecan 5, PI-103 10, PHA-793887 10, Triptolide 10, KU-0063794 10, Trichostatin A 2, control 22.2 d
Text: • 1. […] Then, with the help of linear gene-wise regression, we identified the transcriptomic aging signature, the list of genes that have statistically significant association with age rescaled by lifespan (the first list). • 3. Genes in the aging signature that have positive correlation with age rescaled by lifespan are over-expressed in late life of the animals, and if a gene's correlation is negative its gene expression decreases with age. • 4. […] The identified aging signature represents a vector of the aging-related changes of gene expression. […] This was done by projecting out all gene expression changes along the aging signature. • 6. After that, by gene-wise linear regression, we identified the list of genes that had statistically significant correlation with lifespan of long-lived strains. That list represents the PI3K-null signature. Genes in the PI3K-null signature that have positive correlation with lifespan are over-expressed in long-lived strains, and vise versa, genes with negative correlations have lower gene expression levels in long-lived mutants with respect to the control lines. • 7. […] Therefore, we would affect the aging process and either slow-down it or reverse it. • 8. We combined those lists, and identified the lists of their human orthologs. • 9. The inhibition of these genes or/and the proteins translated from those genes in humans will also produce life-extending effects. • 10. The predictive value of the aging signature was previously experimentally tested in paper. Along the lines of paper, to test the predictive value of the PI3K-null signature, we identified novel life-extending pharmacological interventions by comparing this signatures with gene expression profile changes in response to pharmacologic perturbations from the Connectivity Map (CMAP) database. Using the PI3K-null signature, we predicted perturbagen-compounds opposing the transcriptomic signature distinguishing long-lived C. elegans mutant strains with a slow aging rate from short-lived strains with a fast aging rate (see Table […] and T1b). To eliminate the confounding effect of different biological ages of nematodes in experimental cohorts, we applied the algorithm developed earlier. From the top of predicted compounds, we selected 8 compounds for a follow-up lifespan screening in C. elegans assay (see Figure F1, Table T2). • 11. We successfully tested the selected compounds in C. elegans survival assay (see Figure F1, Table T2). All 8 compounds produced a significant lifespan extension effect (according to the Log-rank Mantel-Cox method, all results are with p<0.05). Therefore, we experimentally validated the PI3K-null signature's pipeline for the identification of new life-extending compounds. • 12. […] CDK7, CHEK2, CAPN1, CTSB, HSP90AB1, HSP90AA1, HSPA5, NFKB1, NPC1, PABPC1, ABCB11, ABCB1, PLK1, PLK3, ADRA2A, ADRA2C, ADRA2B, TUBB6, SENP8, SENP6, SENP7, MMP14, MMP13, MMP8, MMP3, MMP1, MAPKAPK2, CTSL, CTSK, CTSS, ATXN2, TBXAS1, CREBBP, PDGFRA, FLT4, FLT1, KDR, PDGFRB, FLT3, KIT, CSF1R, IKBKB, IKBKE, PGGT1B, FAAH, GFER, MAPK14, MAPK12, PRKAA1, ABCG2, ADAM17, BACE2, BACE1, TUBB6, CA7, CA2, CA1, CA5A, CA12, CA9, CA4, CTSB, FEN1, HDAC1, HDAC2, HDAC3, CBX1, SLC6A4, SLC6A2, SLC6A3, PPARD, PPARG, PPARA, PSEN2, HTR7, ADRA1B, SMN2, FYN, SRC, LCK, LYN, TARDBP, CLK2, CLK4, USP2, GBA, RECQL, BLM, WRN, CDK2, PRKAG3, TFPI, LTA4H, DPP7, BACE2, BACE1, CAPN1, CTSB, IGF1R, INSR, EYA2, HSPA5, NFKB1, TCF7L2, TARDBP, BRD4. • 13. […] Lifespan assays were conducted at 20° C., as described previously. Briefly, synchronous cultures were initiated by lysis of gravid hermaphrodites in alkaline hypochlorite. Worms were selected at the L4 larval stage, placed 50 worms per plate, and transferred at 1- to 2-day intervals onto fresh plates during days 1-7, and at 2- to 3-day intervals after that. […]

[1] = patient; cited from earlier work
mice given Doxorubicin = experiment: Example 33: doxorubicin-induced liver damage (plasma AST); conditions: mouse, in vivo
Method: Doxorubicin if administered by mice reduces total body weight and induces expression of FOXO4 foci and IL-6 in the liver.
On the indicated time points, whole blood samples are collected in a Microvette with Lithium Heparin (Sarstedt) for plasma separation and spun for 10 min at 4.6×g. The (clear) supernatant is transferred into regular 1.5 ml tubes and spun again for 5 min at 4.6×g. The supernatants are transferred again into 1.5 ml tubes, snap frozen in liquid N2 and stored at −80° C. [AST] is measured using an AST Activity Assay Kit (Sigma). The samples are incubated with 100 μl reaction mix in a 96 well plate and place at 37° C. The absorbance at 450 nm is determined after 2 minutes for baseline analysis and after 40 minutes for a final analysis. [Urea] is measured using a QuantiChrom Urea Assay Kit (Gentaur). The samples are incubated in 200 μl reaction mix for 10 minutes at room temperature before absorbance is measured at 520 nm. [Creatinine] is measured using Creatinine Assay Kit (Sigma). Samples are incubated with 50 μl reaction mix at 37° C. for 60 minutes and the absorbance is measured at 570 nm. Ratios comparing plasma values after treatment compared to baseline are determined and plotted as % over baseline in scatter plots.

CIA-induced DBA/1J mice = experiment: Example 30: collagen-induced arthritis (CIA); assay type: in vivo; conditions: 0.2 mg/kg
D. melanogaster = conditions: cited from earlier work
Caenorhabditis elegans = conditions: not replicated in another study; cited from earlier work

| SMILES | Mean LS ext., % (C. elegans) [%] | Mean LS* (C. elegans) [days] | also measured |
| --- | --- | --- | --- |
| Cc1[nH]c2ccccc2c1CCNCc1ccc(/C=C/C(=O)NO)cc1 [Compound 1, Panobinostat] | 8.1 | 24 | – |
| Nc1ccccc1NC(=O)c1ccc(CNC(=O)OCc2cccnc2)cc1 [Compound 2, Entinostat] | 8.6 | 24.1 | – |
| CC[C@@]1(O)C(=O)OCc2c1cc1n(c2=O)Cc2cc3c(CN(C)C)c(O)ccc3nc2-1 [Compound 3, Topotecan] | 9.7 | 24.3 | – |
| Oc1cccc(-c2nc(N3CCOCC3)c3oc4ncccc4c3n2)c1 [Compound 4, PI-103] | 8.6 | 24.1 | – |
| CC(C)CC(=O)Nc1[nH]nc2c1CN(C(=O)C1CCN(C)CC1)C2(C)C [Compound 5, PHA-793887] | 6.9 | 23.7 | – |
| CC(C)[C@]12O[C@H]1[C@@H]1O[C@]13[C@]1(O[C@H]1C[C@H]1C4=C(CC[C@@]13C)C(=O)OC4)[C@@H]2O [Compound 6, Triptolide] | 10 | 24.4 | – |
| COc1ccc(-c2ccc3c(N4CCOCC4)nc(N4C[C@@H](C)O[C@@H](C)C4)nc3n2)cc1CO [Compound 7, KU-0063794] | 10.6 | 24.5 | – |
| CC(/C=C/C(=O)NO)=C\[C@@H](C)C(=O)c1ccc(N(C)C)cc1 [Compound 8, Trichostatin A] | 10 | 24.4 | – |
| COc1cccc2c1C(=O)c1c(O)c3c(c(O)c1C2=O)C[C@@](O)(C(=O)CO)C[C@@H]3O[C@H]1C[C@H](N)[C@H](O)[C@H](C)O1 [Doxorubicin] | – | – | total lifetime dose above which myocardial damage may lead to congestive heart failure [1]: exceeds 550 mg/m^2; plasma levels of Aspartate Aminotransferase, AST (mice given Doxorubicin): strongly induce plasma levels of Aspartate Aminotransferase |
| CN(Cc1cnc2nc(N)nc(N)c2n1)c1ccc(C(=O)N[C@@H](CCC(=O)O)C(=O)O)cc1 [MTX, methotrexate] | – | – | development of arthritis (CIA-induced DBA/1J mice): strong inhibitory effect on the development of arthritis |
| O=C(c1ccc(F)cc1)C1CCN(CCn2c(=O)[nH]c3ccccc3c2=O)CC1 [ketanserin] | – | – | lifespan (D. melanogaster; fixed-diet conditions): did not affect lifespan; lifespan (D. melanogaster; flies allowed to chose nutrients): increased lifespan |
| CN1CCN2c3ccccc3Cc3ccccc3C2C1 (stereo not shown) [mianserin] | – | – | lifespan (prolongevity effect) (Caenorhabditis elegans): prolongevity effect |
